Laboratory results as given in US6890736B1, “Methods for producing proteins in cultured cells” (Immunex Corporation, priority 2002, dated 2005).

Test system: cell line 25H9 (CHO cells)
Assay: Example 2: cell number and viability
Format: cell-based, Chinese hamster
Description: About 2×10^6 cells of cell line 25H9 were inoculated into 30 milliliters of serum-free medium and incubated at the temperatures indicated in Table 1 in vented shake flasks. At the times indicated in Table 1, samples were taken from each flask to determine IL-1R-II titer, cell number, and cell viability. IL-1R-II protein titer was determined by ELISA assay. Cell number was determined by counting cells in a hemocytometer. Cell viability was determined by trypan blue staining and counting stained cells in a hemocytometer. Cumulative viable cell density (CVCD) is the area under the curve of a plot of the viable cell density versus time (in units of cells/ml/day). Productivity (pg of IL-1R-II/cell/day) was determined by dividing the protein titer on a particular day by the CVCD on the same day. Cells were fed with amino acids on days 2 and 5, and dextrose was added periodically in order to maintain levels above 2.0 g/L. All samples were done in duplicate, and the data shown is an average value.
To determine an optimum temperature and decitabine concentration, three temperatures (30° C., 31° C., and 32° C.) and three decitabine concentrations (10 μM, 15 μM, and 20 μM) were tested. A 31° C. culture containing 0.5 mM sodium butyrate was grown as a control. […] See e.g. International Application Nos. WO 89/06686 and WO 87/05626. The experiment was performed as in Example 1 except that the inducer concentrations, temperatures, and days at which data was collected are as indicated in Table 2 and FIG. 1.

[1] = 30° C., 15 μM decitabine, day 0
[2] = 30° C., 15 μM decitabine, day 3
[3] = 30° C., 15 μM decitabine, day 6
[4] = 30° C., 15 μM decitabine, day 8
[5] = 30° C., 20 μM decitabine, day 0
[6] = 30° C., 20 μM decitabine, day 3
[7] = 30° C., 20 μM decitabine, day 6
[8] = 30° C., 20 μM decitabine, day 8
[9] = 31° C., 10 μM decitabine, day 0
[10] = 31° C., 10 μM decitabine, day 3
[11] = 31° C., 10 μM decitabine, day 6
[12] = 31° C., 10 μM decitabine, day 8
[13] = 31° C., 15 μM decitabine, day 0
[14] = 31° C., 15 μM decitabine, day 3
[15] = 31° C., 15 μM decitabine, day 6
[16] = 31° C., 15 μM decitabine, day 8
[17] = 31° C., 20 μM decitabine, day 0
[18] = 31° C., 20 μM decitabine, day 3
[19] = 31° C., 20 μM decitabine, day 6
[20] = 31° C., 20 μM decitabine, day 8
[21] = 32° C., 10 μM decitabine, day 0
[22] = 32° C., 10 μM decitabine, day 3
[23] = 32° C., 10 μM decitabine, day 6
[24] = 32° C., 10 μM decitabine, day 8
[25] = 32° C., 15 μM decitabine, day 0
[26] = 32° C., 15 μM decitabine, day 3
[27] = 32° C., 15 μM decitabine, day 6
[28] = 32° C., 15 μM decitabine, day 8
[29] = 32° C., 20 μM decitabine, day 0
[30] = 32° C., 20 μM decitabine, day 3
[31] = 32° C., 20 μM decitabine, day 6
[32] = 32° C., 20 μM decitabine, day 8

Nc1ncn([C@H]2C[C@H](O)[C@@H](CO)O2)c(=O)n1 [decitabine, 5-aza-2′-deoxycytidine]
Viable Cell Density (30° C., 10 μM decitabine, day 8): 2.1e+06 mL⁻¹
Cumulative Viable Cell Density [1]: 0 mL⁻¹ day⁻¹
Viable Cell Density [1]: 2e+06 mL⁻¹
Cumulative Viable Cell Density [2]: 6.8e+06 mL⁻¹ day⁻¹
Viable Cell Density [2]: 2.6e+06 mL⁻¹
Cumulative Viable Cell Density [3]: 1.4e+07 mL⁻¹ day⁻¹
Viable Cell Density [3]: 2.2e+06 mL⁻¹
Cumulative Viable Cell Density [4]: 1.81e+07 mL⁻¹ day⁻¹
Viable Cell Density [4]: 1.9e+06 mL⁻¹
Cumulative Viable Cell Density [5]: 0 mL⁻¹ day⁻¹
Viable Cell Density [5]: 2e+06 mL⁻¹
Cumulative Viable Cell Density [6]: 7.9e+06 mL⁻¹ day⁻¹
Viable Cell Density [6]: 3.3e+06 mL⁻¹
Cumulative Viable Cell Density [7]: 1.63e+07 mL⁻¹ day⁻¹
Viable Cell Density [7]: 2.3e+06 mL⁻¹
Cumulative Viable Cell Density [8]: 2.04e+07 mL⁻¹ day⁻¹
Viable Cell Density [8]: 1.8e+06 mL⁻¹
Cumulative Viable Cell Density [9]: 0 mL⁻¹ day⁻¹
Viable Cell Density [9]: 2e+06 mL⁻¹
Cumulative Viable Cell Density [10]: 8.7e+06 mL⁻¹ day⁻¹
Viable Cell Density [10]: 3.9e+06 mL⁻¹
Cumulative Viable Cell Density [11]: 2.1e+07 mL⁻¹ day⁻¹
Viable Cell Density [11]: 4.3e+06 mL⁻¹
Cumulative Viable Cell Density [12]: 2.85e+07 mL⁻¹ day⁻¹
Viable Cell Density [12]: 3.2e+06 mL⁻¹
Cumulative Viable Cell Density [13]: 0 mL⁻¹ day⁻¹
Viable Cell Density [13]: 2e+06 mL⁻¹
Cumulative Viable Cell Density [14]: 7.9e+06 mL⁻¹ day⁻¹
Viable Cell Density [14]: 3.3e+06 mL⁻¹
Cumulative Viable Cell Density [15]: 1.92e+07 mL⁻¹ day⁻¹
Viable Cell Density [15]: 4.2e+06 mL⁻¹
Cumulative Viable Cell Density [16]: 2.58e+07 mL⁻¹ day⁻¹
Viable Cell Density [16]: 2.4e+06 mL⁻¹
Cumulative Viable Cell Density [17]: 0 mL⁻¹ day⁻¹
Viable Cell Density [17]: 2e+06 mL⁻¹
Cumulative Viable Cell Density [18]: 9.2e+06 mL⁻¹ day⁻¹
Viable Cell Density [18]: 4.2e+06 mL⁻¹
Cumulative Viable Cell Density [19]: 2.17e+07 mL⁻¹ day⁻¹
Viable Cell Density [19]: 4.2e+06 mL⁻¹
Cumulative Viable Cell Density [20]: 2.86e+07 mL⁻¹ day⁻¹
Viable Cell Density [20]: 2.7e+06 mL⁻¹
Cumulative Viable Cell Density [21]: 0 mL⁻¹ day⁻¹
Viable Cell Density [21]: 2e+06 mL⁻¹
Cumulative Viable Cell Density [22]: 8e+06 mL⁻¹ day⁻¹
Viable Cell Density [22]: 3.4e+06 mL⁻¹
Cumulative Viable Cell Density [23]: 1.9e+07 mL⁻¹ day⁻¹
Viable Cell Density [23]: 3.9e+06 mL⁻¹
Cumulative Viable Cell Density [24]: 2.49e+07 mL⁻¹ day⁻¹
Viable Cell Density [24]: 2.1e+06 mL⁻¹
Cumulative Viable Cell Density [25]: 0 mL⁻¹ day⁻¹
Viable Cell Density [25]: 2e+06 mL⁻¹
Cumulative Viable Cell Density [26]: 8e+06 mL⁻¹ day⁻¹
Viable Cell Density [26]: 3.4e+06 mL⁻¹
Cumulative Viable Cell Density [27]: 1.82e+07 mL⁻¹ day⁻¹
Viable Cell Density [27]: 3.4e+06 mL⁻¹
Cumulative Viable Cell Density [28]: 2.41e+07 mL⁻¹ day⁻¹
Viable Cell Density [28]: 2.5e+06 mL⁻¹
Cumulative Viable Cell Density [29]: 0 mL⁻¹ day⁻¹
Viable Cell Density [29]: 2e+06 mL⁻¹
Cumulative Viable Cell Density [30]: 8.3e+06 mL⁻¹ day⁻¹
Viable Cell Density [30]: 3.6e+06 mL⁻¹
Cumulative Viable Cell Density [31]: 1.87e+07 mL⁻¹ day⁻¹
Viable Cell Density [31]: 3.3e+06 mL⁻¹
Cumulative Viable Cell Density [32]: 2.36e+07 mL⁻¹ day⁻¹
Viable Cell Density [32]: 1.6e+06 mL⁻¹
